The test system of one data set is human PMN. In words: Inhibition of LTB4-induced chemotaxis of human PMN in vitro (BOYDEN-KELLER chambers). The format is cell-based. As to the method: STUDY OF THE ACTIVITY OF THE COMPOUNDS OF THE INVENTION WITH RESPECT TO THE CHEMOTAXIS OF HUMAN PMN IN VITRO
PMN incubated in HBSS without Ca^2+ or Mg^2+ are labeled with ^51 chromium (1 μL Ci/10^6 cells) for 1 hour at 37° C. and then washed twice with HBSS.
The PMN are then resuspended at a concentration of 10^7 cells/cm^3 in Hank's buffer with the addition of 1% bovine albumin. LTB4 and the compounds of the invention dissolved in Hank buffer are introduced into the lower part of BOYDEN-KELLER chambers, two cellulose nitrate filters (Millipore, 3 μm) are placed on each well and the upper part of the chambers is filled with the cell suspension (Methods Enzymol 1988, vol. 162, pp 59-64).
The chambers are incubated for 150 min at 37° C. under an atmosphere of 95% humidified air and 5% CO2.
The radioactivity of the lower filter is measured with a scintillation spectrometer (Beckman LS 3801).

For data set [1], the system named is LTB4-induced contraction of parenchymatous strips of guinea pig lung. As to the kind of experiment: LTB4-induced contraction of isolated parenchymatous lung strips. On the set-up: species or system DUNKIN HARTLEY guinea pig. The conditions noted are these: contraction stimulated with 30 nM LTB4, compound added 2 min before; read-out: 50% inhibition of the contraction (IC50). As to the method:
STUDY OF THE ACTIVITY OF THE COMPOUNDS OF THE INVENTION WITH RESPECT TO THE CONTRACTION OF PARENCHYMATOUS LUNG STRIPS
LTB4 has a contracting effect on isolated parenchymatous strips of guinea pig lung. The antagonist activity of the compounds of the invention with respect to this LTB4 -induced contraction is tested.
Parenchymatous strips of DUNKIN HARTLEY guinea pig lung are cut and placed in baths containing Tyrode's solution oxygenated with a stream of gas (95% O2 /5% CO2). The strips are connected to a polygraph (GOULD Statham) with an isometric tension of 400 mg. After 1 h of equilibrium, 1 μM mepyramine and 10 μM atroprine are added to the Tyrode's solution, and the compounds of the invention are tested for their antagonist activities. The contractile responses are recorded over 5 min. The antagonist activities of the compounds of the invention are tested by adding these compounds to the bath 2 min before stimulation of contraction with 30 nM LTB4.

The test system of data set [2] is swelling of the ear of a mouse. In words: Topical inflammatory model (psoriasis), arachidonic acid ear swelling. The format is in vivo. Conditions: dose of 20 mg/ear, arachidonic acid 2 mg, 60 min. As to the method:
STUDY OF THE ACTIVITY OF THE COMPOUNDS OF THE INVENTION WITH RESPECT TO A TOPICAL INFLAMMATORY MODEL (psoriasis)
The present test enables the anti-inflammatory activity of the compounds of the invention with respect to such dermal lesions to be tested.
(Current Test Protocols-Pharmacology Service-Panlabs-June 92).
Arachidonic acid (2 mg in 20 μl of an acetone/pyridine/water (7:2:1) mixture) is applied topically to the anterior and posterior surfaces of the right ear of a mouse 30 min after a similar application of the test compound or of the vehicle (20 μl). The swelling of the ear is measured by a Dyer type gauge after 60 min as an index of the inflammation.
The percentage inhibition is calculated according to the formula: Ic-lt/Ic×100, in which Ic and It represent the increase in thickness (in mm) of the ear in the control mouse and in the treated mouse, respectively.

The next data set deals with T1, LTB4 receptors (Homo sapiens, UniProt Q15722).
T1 construct: Human PMN are isolated from heparinized venous blood of healthy donors; endogenous in cells; host or cells: human polymorphonuclear leukocytes (PMN) from venous blood of healthy donors
T1 sequence (Q15722 whole entry): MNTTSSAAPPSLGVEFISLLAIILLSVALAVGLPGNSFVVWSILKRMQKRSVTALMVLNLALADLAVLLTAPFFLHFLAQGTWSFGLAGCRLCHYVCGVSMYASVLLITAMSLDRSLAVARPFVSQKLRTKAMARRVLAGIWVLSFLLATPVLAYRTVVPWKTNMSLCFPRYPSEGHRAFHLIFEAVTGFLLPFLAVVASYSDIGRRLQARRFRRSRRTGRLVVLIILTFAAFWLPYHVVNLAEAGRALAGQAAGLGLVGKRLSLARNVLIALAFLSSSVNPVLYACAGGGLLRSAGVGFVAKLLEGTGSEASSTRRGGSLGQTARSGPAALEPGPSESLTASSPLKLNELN
In words: Study of binding to LTB4 (Leukotriene B4) receptors on human PMN, displacement of [^3 H]LTB4. The conditions noted are these: for IC50: human PMN (10^6 cells), 1 nM [^3 H]LTB4, 20 min at 4° C., read-out: 50% inhibition (IC50) of the binding of [^3 H]LTB4. As to the method:
Human PMN are isolated from heparinized venous blood of healthy donors by sedimentation on dextran T500. The supernatant is centrifuged on Ficoll Paque®, and the residual erythrocytes are removed by hypotonic lysis. The PMN are washed with Hank's isotonic saline solution (HBSS) free from Ca^2+ and Mg^2+.
[…] is verified by the trypan blue exclusion technique.
Study of binding to LTB4 receptors
Binding to PMN is carried out in HBSS free from Ca^2+ and Mg^2+ containing 5 mM HEPES buffer.
The PMN (10^6 cells) are incubated for 20 min at 4° C. with 1 nM [^3 H]LTB4 in the presence or absence of non-radioactive LTB4 or of the compounds of the invention at various concentrations.

The nature of data set [3]: Solubility of the salt in water. The format is physicochemical. Conditions: sodium salt.
Data set [4] can be described thus: Stability of the solution of the salt. The format is physicochemical. Conditions: sodium salt, aqueous solution.

The text below walks through data of patent publication US5639902A, “(Cyclohexyl)alkene compounds” (Adir et Compagnie, priority 1993, dated 1997).

Regarding `O=C(O)C[C@]1(O)CCC[C@H](/C=C/C(O)CCCCc2ccccc2)C1` (relative stereo) [Example 7, (1S*,3S*)-1-HYDROXY-3-[(3R*S*,E)-3-HYDROXY-7-PHENYL-1-HEPTEN-1-YL]-1-CYCLOHEXANE-ACETIC ACID], the “inhibition of the action of LTB4 on cell migration (in words)” value with human PMN (up to a concentration of 50 μM) is listed as “total inhibition”. Moreover, the IC50 was 0.04 µM in data set [1] and 0.2 µM on LTB4 receptors. The “decrease in the volume of the ear” value in data set [2] is on record as 30%.

In the case of `O=C(O)C[C@]1(O)CCC[C@H](/C=C/C(O)CCCCc2ccccc2)C1` (relative stereo) [Sodium (1S*,3S*)-1-hydroxy-3-[(3R*S*,E)-3-hydroxy-7-phenyl-1-hepten-1-yl]-1-cyclohexaneacetate], the solubility in data set [3] amounted to 100 mg/mL. Also, the “Stability of the solution” value in data set [4] was “more than 18 months”.

As for `CN(C)C(=O)C[C@]1(O)CCC[C@H](/C=C/C(O)CCCCc2ccccc2)C1` (single isomer, unassigned) [Example 69, (1S*,3S*)-1-HYDROXY-3-[(3R*S*,E)-3-HYDROXY-7-PHENYL-1-HEPTEN-1-YL]CYCLOHEXANE-1-(N,N-DIMETHYLACETAMIDE)], the 50% inhibitory concentration (IC50) on LTB4 receptors turned out to be 0.5 µM.

For `CN(C)C(=O)C[C@@]1(O)CCC[C@H](/C=C/C(O)CCCCc2ccccc2)C1` (single isomer, unassigned) [Example 71, (1R*,3S*,E)-1-HYDROXY-3-[(3R*S*,E)-3-HYDROXY-7-PHENYL-1-HEPTEN-1-YL]CYCLOHEXANE-1-(N,N-DIMETHYLACETAMIDE)], the IC50 at LTB4 receptors was determined as 2 µM.

For the molecule `CCCCC/C=C\C[C@@H](O)/C=C/C=C/C=C\[C@@H](O)CCCC(=O)O` [LTB4, Leukotriene B4, reference compound], the “effect on the spontaneous migration of human PMN (in words)” value with human PMN (LTB4 0.1 to 100 nM, BOYDEN-KELLER chambers) is listed as “causes an activation of the spontaneous migration”. Further, the “displacement of [^3 H]LTB4 from its specific binding sites (in words)” value on LTB4 receptors (human PMN, [^3 H]LTB4 (1 nM), increasing doses of unlabeled LTB4) is “dose-dependent displacement”.

The IC50 is the concentration that gives 50% inhibition. Usually solubility stands for the concentration that dissolves in the medium under given conditions.
